# Test results taken from patent US20250248979A1, “NOVEL GPX4 INHIBITORS AND USES THEREOF” (THE TRUSTEES OF COLUMBIA UNIVERSITY IN THE CITY OF NEW YORK, priority 2022, published 2025).
# Read-outs that look alike come from different tables or passages of the source.
# Columns and labels:
# HepG2 cells = assay: Cellular dose response assay, HepG2; type: cell-based, human
# Procedure, shortened: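 Cells were seeded at 1500 per well, grown overnight, then treated in triplicate with 12-point 2-fold compound dilutions (0.4% DMSO final) for 48 h at 37 °C, 5% CO2. HT-1080 series were run with and without Fer-1. Viability was read by CellTiter-Glo luminescence.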
# GPX4^U46C = target: T1, GPX4^U46C (Homo sapiens, UniProt P36969, U73C); assay: Microscale thermophoresis (MST) binding; conditions: for EC50: half maximal effective concentration, covalent mechanism
# T1 construct: made in house; host or cells: E. coli BL21-Gold (DE3)
# T1 sequence (P36969 1-170 isoform P36969-2 U46C): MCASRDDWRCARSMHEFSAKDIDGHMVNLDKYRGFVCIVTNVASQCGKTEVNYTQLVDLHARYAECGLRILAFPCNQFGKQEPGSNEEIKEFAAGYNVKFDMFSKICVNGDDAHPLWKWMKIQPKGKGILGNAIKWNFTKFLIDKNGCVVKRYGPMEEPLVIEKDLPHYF
# Method: The bacterial expression vector pET-15b-His-tagged-c-GPX4^U46C was prepared as previously described (Yang et al. 2016). The C-terminal His-tagged GPX4U46C protein was expressed in E. coli and purified according to a protocol modified from Scheerer et al. 2007. First, pET-15b-His-tagged-c-GPX4^U46C was transformed into XL10-Gold (Agilent #200314) E. coli ultracompetent cells for plasmid DNA production and isolated using QIAprep Spin Miniprep Kit (Qiagen). For protein expression, pET-15b-His-tagged-c-GPX4^U46C was then transformed into BL21-Gold (DE3) E. coli competent cells (Agilent #230132) and plated on LB agar with 100 μg/mL ampicillin. A starter culture was inoculated in 7 mL of LB medium with 100 μg/mL ampicillin using a single colony and allowed to grow in a 37° C. shaker (225 rpm) for 16 hours. 3 mL of the starter culture was added to 1 L of LB medium with 100 μg/mL ampicillin, which was then incubated in a 37° C. shaker (225 rpm) to an OD600 of 0.9. At that point, the incubation temperature was reduced to 15° C. and the culture was allowed to equilibrate for 1 hour. Expression of the recombinant enzyme was induced by addition of isopropyl β-D-1-thiogalactopyranoside (IPTG, 1 mM final concentration) overnight for 12-15 hours shaking at 225 rpm and 15° C. The next morning, cells were harvested by centrifugation at 4000 rpm and 4° C. for 20 minutes. The cell pellet was then frozen at −80° C. for at least 1 hour or until lysis. To lyse the cells, the cell pellet was resuspended with 25 mL of chilled lysis buffer (100 mM Tris pH 8.0, 300 mM NaCl, 20 mM imidazole, 3 mM TCEP, and 2.5 mini tablets of complete Protease Inhibitor Cocktail (Roche-Sigma #11836170001)) then lysed using an Emulsiflex C3 high-pressure homogenizer. To remove cell debris, the lysate was subjected to centrifugation at 10000 rpm and 4° C. for 20 minutes. The supernatant was centrifuged once more at the same conditions, then the clarified lysate was applied onto a 5-mL HisTrap HP column (Cytiva #17-5248-01), washed with 90% Buffer A (100 mM Tris pH 8.0, 300 mM NaCl, 5% glycerol, 3 mM TCEP) 10% Buffer B (Buffer A with 500 mM imidazole), then eluted with a continuous gradient (10-100% Buffer B). The protein was concentrated using Amicon Ultra-15 centrifugal filter units with a 10 kDa molecule weight cutoff (EMD Millipore #UFC901024) then further purified by FPLC on a size exclusion HiLoad Superdex 200 column (Cytiva) in crystallization buffer (20 mM Tris pH 8.0, 300 mM NaCl, 3 mM TCEP). The fractions containing 90-95% pure GPX4 protein, as evaluated by SDS-PAGE, were pooled and concentrated using the same Amicon centrifugal filter units as above to 5 mg/mL. Concentration was determined by Nanodrop. Protein was aliquoted into Eppendorf tubes, flash frozen using liquid nitrogen, and stored at −80° C. until use.
# MST experiments were conducted using a Monolith NT.115 (Nanotemper Technologies) according to manufacturer instructions. To label the protein, 90 μL of 200 nM GPX4^U46C was combined with 90 μL of 100 nM RED-tris-NTA dye diluted in PBS buffer with 0.05% Tween 20 (PBST buffer). The mixture was incubated for 30 minutes at room temperature, followed by centrifugation for 10 minutes at 4° C. and 15,000×g. To assess binding of the compounds, a 16-point 2-fold dilution series in PBST buffer was prepared and mixed in a 1:1 ratio with the labeled protein solution for a final volume of 20 μL. The reaction mixture was loaded into standard treated capillary tubes and analyzed with the Monolith NT.115 at 40% LED power and 40% MST power with a laser-on time of 5 seconds. The data were analyzed in MO.Affinity Analysis v2.3 software.
# HT-1080 cells = assay: Cellular dose response assay, HT-1080 with and without Fer-1; type: cell-based, human
# Procedure, shortened: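 Following overnight attachment (1500 cells per well), triplicate wells got 2-fold serial dilutions across 12 points, with or without Fer-1 for HT-1080, at 0.4% final DMSO. After 48 h incubation, luminescent ATP-based viability (CellTiter-Glo) was recorded.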
# HLF cells = assay: Cellular dose response assay, HLF; type: cell-based, human
# Source text: (§1) HT-1080 (human [Homo sapiens] […] fibrosarcoma), A-673 (human [Homo sapiens] […] Ewing's sarcoma), and SK-HEP-1 (human [Homo sapiens] […] hepatic adenocarcinoma), cells were obtained from ATCC. Huh7 (human [Homo sapiens] […] hepatocellular carcinoma), HLF (human [Homo sapiens] […] hepatocellular carcinoma), HepG2 (human [Homo sapiens] […] hepatocellular carcinoma), cells were obtained from the Cancer Cell Bank at Columbia University Irving Medical Center. HT-1080, A-673, Huh-7, and HLF cells were grown in Dulbecco's Modified Eagle Medium (DMEM) supplemented with 10% heat inactivated fetal bovine serum (HI-FBS), 1% non-essential amino acids, and 1% penicillin streptomycin. HepG2 and SK-HEP-1 cells were grown in Eagle's Minimum Essential Medium (EMEM) supplemented with 10% HI-FBS, and 1% penicillin-streptomycin. All cells were cultured at 37° C. and 5% CO2.
# (§2) HT-1080, HepG2, Huh7, HLF, and SK-HEP-1 cells were seeded into opaque white 384-well plates at 1500 cells per well then incubated at 37° C. with 5% CO2 overnight. The next day, compounds of interest were dissolved in DMSO and 12-point 2-fold dilution series were prepared with and without Fer-1. Cells were treated in triplicate (final DMSO concentration of 0.4% in all wells, including DMSO-only control wells) and incubated for a further 48 hours at 37° C. and 5% CO2. Cell viability was evaluated using CellTiter-Glo (Promega G7573) and luminescence was recorded on a Victor 5 plate reader. Data were analyzed in GraphPad Prism 9 and error bars represent standard deviation values for three technical replicates in a representative experiment.
# SK-HEP-1 cells = assay: Cellular dose response assay, SK-HEP-1; type: cell-based, human
# Source text: as §1, §2
# [1] = compounds alone, Table 4, read-out: IC50 (uM) HEPG2^a
# [2] = with fer-1, Table 4, read-out: IC50 (uM) HEPG2^b
# [3] = compounds alone, Table 4, read-out: IC50 (uM) HLF^a
# [4] = with fer-1, Table 4, read-out: IC50 (uM) HLF^b
# [5] = compounds alone, Table 4, read-out: IC50 (uM) HT1080^a
# [6] = with fer-1, Table 4, read-out: IC50 (uM) HT1080^b
# [7] = compounds alone, Table 4, read-out: IC50 (uM) SKHEP1^a
# [8] = with fer-1, Table 4, read-out: IC50 (uM) SKHEP1^b
# [9] = with Fer-1, Table 10, read-out: IC50 (μM) HT1080 + Fer-1
Compound,Kd (GPX4^U46C; MST),EC50 (GPX4^U46C),IC50 (HepG2 cells; [1]),IC50 (HepG2 cells; [2]),IC50 (HLF cells; [3]),IC50 (HLF cells; [4]),IC50 (HT-1080 cells; [5]),IC50 (HT-1080 cells; [6]),IC50 (SK-HEP-1 cells; [7]),IC50 (SK-HEP-1 cells; [8]),also measured
"COc1cccc2[nH]c(C(=O)n3ccnc3)cc12 [LOC1886, reference compound]",263 µM,263 µM,–,–,–,–,–,–,–,–,"IC50 (HepG2 cells; Homo sapiens, HepG2, compounds alone, read-out: IC50 (μM) HEPG2^a): 88.6 µM; IC50 (HepG2 cells; Homo sapiens, HepG2, compounds and fer-1 1.0 μM, read-out: IC50 (μM) HEPG2^b): 29.1 µM; IC50 (HT-1080 cells; Homo sapiens, HT-1080, compounds alone, read-out: IC50 (μM) HT1080^a): 163 µM; IC50 (HT-1080 cells; Homo sapiens, HT-1080, compounds and fer-1 1.0 μM, read-out: IC50 (μM) HT1080^b): 109 µM; ferroptosis induction / potency in HT-1080 cells, result in words (HT-1080 cells; RSL3 as control): no fer-1 rescue was observed"
Cn1nc(C(=O)NC(C)(C)COC(=O)CCl)c2ccc(Br)cc21 [QW-314],5.8 µM,–,–,–,–,–,–,–,–,–,"IC50 (HepG2 cells; Homo sapiens, HepG2, read-out: IC50 (uM) HEPG2^a): 11.3 µM; IC50 (HepG2 cells; Homo sapiens, HepG2, read-out: IC50 (uM) HEPG2^b): 222 µM; GI50 (HLF cells; Homo sapiens, HLF): ~1 µM; IC50 (HLF cells; Homo sapiens, HLF, read-out: IC50 (uM) HLF^a): 0.13 µM; IC50 (HLF cells; Homo sapiens, HLF, read-out: IC50 (uM) HLF^b): 80 µM; IC50 (HT-1080 cells; Homo sapiens, HT-1080, read-out: IC50 (uM) HT1080^a): 1.9 µM; IC50 (HT-1080 cells; Homo sapiens, HT-1080, read-out: IC50 (uM) HT1080^b): 77.4 µM; IC50 (SK-HEP-1 cells; Homo sapiens, SK-HEP1, read-out: IC50 (uM) SKHEP1^a): 10.8 µM; IC50 (SK-HEP-1 cells; Homo sapiens, SK-HEP1, read-out: IC50 (uM) SKHEP1^b): 106 µM"
CC(C)(COC(=O)CCl)NC(=O)c1nn(Cc2cc(Cl)cc(Cl)c2)c2cc(-c3ccc(N4CCOCC4)c(Cl)c3)ccc12 [QW-852],–,–,–,–,–,–,–,–,–,–,Selectivity (HT-1080 cells): >1000; IC50 (HT-1080 cells; read-out: IC50 against HT1080 cell lines): 0.0395 µM; IC50 (HT-1080 cells; [9]): > 40 µM
"COC(=O)c1ccc([C@@H]2c3[nH]c4ccccc4c3C[C@@H](C(=O)OC)N2C(=O)CCl)cc1 [RSL3, reference compound]",–,–,5.4 µM,32.2 µM,0.25 µM,> 40 µM,0.044 µM,4.6 µM,0.05 µM,> 40 µM,"IC50 (HepG2 cells; compounds alone, Table 7, read-out: IC50 (uM) HEPG2^a): 5.4 µM; IC50 (HepG2 cells; compounds alone, read-out: IC50 (μM) HEPG2^a): 5.4 µM; IC50 (HepG2 cells; compounds and fer-1 1.0 μM, read-out: IC50 (μM) HEPG2^b): 32.2 µM; IC50 (HepG2 cells; with fer-1, Table 7, read-out: IC50 (uM) HEPG2^b): 32.2 µM; IC50 (HLF cells; compounds alone, Table 7, read-out: IC50 (uM) HLF^a): 0.25 µM; IC50 (HLF cells; with fer-1, Table 7, read-out: IC50 (uM) HLF^b): > 40 µM; Selectivity (HT-1080 cells): 103.6; IC50 (HT-1080 cells; compounds alone, Table 7, read-out: IC50 (uM) HT1080^a): 0.044 µM; IC50 (HT-1080 cells; compounds alone, read-out: IC50 (μM) HT1080^a): 0.044 µM; IC50 (HT-1080 cells; compounds and fer-1 1.0 μM, read-out: IC50 (μM) HT1080^b): 4.6 µM; IC50 (HT-1080 cells; [9]): 4.6 µM; IC50 (HT-1080 cells; with fer-1, Table 7, read-out: IC50 (uM) HT1080^b): 4.6 µM; IC50 (HT-1080 cells; without Fer-1, Table 10, read-out: IC50 HT1080): 0.0444 µM; IC50 (SK-HEP-1 cells; compounds alone, Table 7, read-out: IC50 (uM) SKHEP1^a): 0.05 µM; IC50 (SK-HEP-1 cells; with fer-1, Table 7, read-out: IC50 (uM) SKHEP1^b): > 40 µM"

# Further lines, with some results ahead:
Kd (GPX4^U46C; MST),EC50 (GPX4^U46C),IC50 (HepG2 cells; [1]),IC50 (HepG2 cells; [2]),IC50 (HLF cells; [3]),IC50 (HLF cells; [4]),IC50 (HT-1080 cells; [5]),IC50 (HT-1080 cells; [6]),IC50 (SK-HEP-1 cells; [7]),IC50 (SK-HEP-1 cells; [8]),Compound,also measured
–,2.4 µM,69 µM,104 µM,98.7 µM,113 µM,34.8 µM,37.2 µM,24.1 µM,52.8 µM,CC(C)(COC(=O)CCl)NC(=O)c1cc2ccccc2[nH]1 [QW-147],–
–,39.7 µM,> 400 µM,> 400 µM,16.6 µM,28.7 µM,37.7 µM,95.9 µM,10.1 µM,121 µM,CC(C)(COC(=O)CCl)NC(=O)c1cc2cc([N+](=O)[O-])ccc2[nH]1 [QW-148],–
–,0.678 µM,81.4 µM,291 µM,30 µM,278 µM,55.5 µM,167 µM,24.7 µM,340 µM,COc1ccc2cc(C(=O)NC(C)(C)COC(=O)CCl)[nH]c2c1 [QW-152],–
–,0.218 µM,25.4 µM,51.5 µM,13.4 µM,34.3 µM,22.9 µM,33.1 µM,13.7 µM,62.8 µM,CC(C)(COC(=O)CCl)NC(=O)c1cc2ccc(Br)cc2[nH]1 [QW-156],–
0.485 µM,–,–,–,–,–,–,–,–,–,COc1ccc(-c2ccc3c(C(=O)NC(C)(C)COC(=O)CCl)nn(C)c3c2)cc1Cl [QW-446],"times more potent than RSL3 (binding affinity) (GPX4^U46C; MST, relative to RSL3): 15 times; IC50 (HT-1080 cells; HT1080 + Fer-1, read-out: IC50 (uM) HT1080 + Fer-1): 30.3 µM; ferroptosis selectivity (HT-1080 cells; HT-1080): 69; Selectivity (HT-1080 cells; ferroptosis selectivity, HT1080 + Fer-1 vs HT1080): 69; IC50 (HT-1080 cells; read-out: IC50 HT1080): 0.44 µM"
